Assay [1] deals with NCI-60 cell lines. Put plainly: NCI-60 […] IC50 values, cell lines with rs1805407 vs wild type. Particulars: NCI60 IC50 values, C/T or C/C (n=23) vs T/T (n=37). The format is cell-based. An excerpt: Given that TMZ damages the DNA and PARP1 has a critical role in DNA repair, one plausible hypothesis is that rs1805407 is either associated with increased PARP1 activity or decreased PARP1 trapping after treatment with alkylating agents (Murai J, et al. (2012) Cancer Res 72(21):5588-5599). The role of rs1805407 in cell response to various drugs was investigated. The NCI-60 […]™ database (Reinhold W C, et al. (2012) Cancer Res 72(14):3499-3511) contains the response of 60 cell lines to ˜50,000 compounds. It was evaluated whether drugs affect differentially the cell lines that have at least one copy of rs1805407 (C/T or C/C) vs wild type (T/T).
SNP imputation on TCGA samples and NCI-60 cell lines: NCI-60 data were obtained from Cell Miner in June 2013 (discover.nci_nih.gov/cellminer/). For those cell lines or TCGA samples for which the identity of SNP rs1805407 was not available we used imputation to infer its identity. Using SNAP (17) we found 51 SNPs to be in perfect linkage disequilibrium (LD) with rs1805407 (R^2=1). Of these, 9 variants were covered by the Affymetrix SNP Array 6.0 used by the TCGA. To determine the rs1805407 genotype in TCGA samples birdseed calls (Korn J M, et al. (2008) Nature genetics 40(10):1253-126) from Affymetrix Genome-Wide Human SNP Array 6.0 were used. Only samples with a birdseed confidence less than 0.1 or where all 9 SNPs in perfect LD agreed with the birdseed call were used.

Assay [2] deals with SW620. Put plainly: MTT cell proliferation assay, MMS alone or with ABT-888. Format: cell-based. Particulars: Homo sapiens, SW-620, SW620 colon, PARP1/SNP T/T, MMS alone, 72 h, mean (±SD). An excerpt: (§1) PARP1 cell proliferation and drug interaction assays: RPMI 1640 and Dulbecco's modified Eagle medium (DMEM) with L-Glutamine, cell culture media were purchased from Cellgro (Mediatech, Inc.). Heat-inactivated Foundation Fetal bovine serum (FBS) was purchased from Gemini bio-products. The alkylating agent, methyl methanesulfonate (MMS) was purchased from Sigma. The PARPi veliparib (ABT-888, Abbott Laboratories, Abbott Park, Ill., USA) was used in the cell proliferation assays. The ABT-888 used in the drug interaction assays was purchased from Selleck Chemicals LLC (Huston, Tex., USA). MMS is an alkylating agent that results in DNA damage at the same bases as dacarbazine and temozolomide and has been used extensively as an alternative in the laboratory setting. ABT-888 was dissolved in dimethyl sulfoxide (DMSO) to a stock solution of 10 mM. A 10 μM working solution was then prepared in PBS for subsequent serial dilutions.
(§2) The cytotoxic effect of the PARP inhibitor veliparib (ABT-888) and the alkylating agent, MMS was assessed using the MTT colorimetric dye reduction assay, according to the manufacturer's instructions (TACS® MTT Cell Proliferation Assay (MTT-CPA) from Trevigen, Inc.). MTT assay was used for each cell line to determine the half-maximal (50%) inhibitory concentration (IC50) values of MMS alone or in combination with ABT-888. Briefly, cells were seeded in triplicates in 96 wells at appropriate cell density (optimized for each individual cell line to have exponentially growing cells during the course of the assay), in their regular culture medium (DMEM with L-Glutamine from Cellgro (Mediatech, Inc.)). After 24 h, the medium was aspirated and the cells were incubated with increasing concentrations of MMS alone (0 to 1 mM) or in the presence of a fixed concentration (10 nM final) of ABT-888 (six replicates for each combination treatment) for 72 h at 37° C. Then, 10 μl of MTT Reagent was added to each well and the plates were incubated for another 4 h at 37° C. in the dark. In each well, 100 μl of Detergent Reagent was then added and incubated at 37° C. until complete solubilization of formazan crystals.
(§3) In single drug treatment experiments (MMS alone), drug-free controls containing 0.5% DMSO were included. In drug combination experiments with increasing concentrations of MMS, the samples with PARPi alone (fixed concentration of 10 nM of ABT-888), were used as controls. All control values were normalized to 100%. Cell viability was measured by reading the absorbance at 570 nm using a Tecan (Safire 2) microplate reader. Reading was converted to the percentage of the controls. The values obtained for each of the triplicates were averaged, and IC50 values were defined as the concentrations of drug(s) that inhibited growth by 50% relative to controls. The data from the MTT assay were expressed as mean IC50±standard deviation (SD). The IC50 of ABT-888, MMS and linear regression analysis were computed by […] Prism 5.0 program ([…] Software, Inc., San Diego, Calif.). For each cell line, the P-value was calculated using the Student t-test (two-tailed, paired) to compare the IC50 means of each treatment group (MMS alone or MMS+ABT-888).
For orientation: Tetrazolium assays rely on reduction of a dye to a coloured formazan, in cell work by metabolically active cells.

Assay [3] has as its system FEMX. Described as above. Particulars: Homo sapiens, Fem-X, FEMX melanoma, PARP1/SNP T/T, MMS alone, 72 h, mean (±SD). The format is cell-based.
Source text: as §1, §2, §3

The subject of assay [4] is A2780. Described as above. Format: cell-based. Particulars: Homo sapiens, A2780 ovarian, PARP1/SNP C/T, MMS alone, 72 h, mean (±SD).
Source text: as §1, §2, §3

The subject of assay [5] is M14. Described as above. The format is cell-based. Particulars: Homo sapiens, M14 melanoma, PARP1/SNP C/T, MMS alone, 72 h, mean (±SD).
Source text: as §1, §2, §3

Assay [6] relates to MDA-MB-231. The assay is described as above. The format is cell-based. Particulars: Homo sapiens, MDA-MB-231 breast, PARP1/SNP C/T, MMS alone, 72 h, mean (±SD).
Source text: as §1, §2, §3

For assay [7], the system named is MCF-7. The description is as above. Format: cell-based. Particulars: Homo sapiens, MCF7, MCF-7 breast, PARP1/SNP C/T, MMS alone, 72 h, mean (±SD).
Source text: as §1, §2, §3

The subject of assay [8] is A375. The assay is described as above. The format is cell-based. Particulars: Homo sapiens, A-375, A375 melanoma, PARP1/SNP T/T, MMS alone, 72 h, mean (±SD).
Source text: as §1, §2, §3

Assay [9] deals with A549. The assay is described as above. Format: cell-based. Particulars: Homo sapiens, A549 lung, PARP1/SNP C/T, MMS alone, 72 h, mean (±SD).
Source text: as §1, §2, §3

Assay [10] has as its system H-522. The assay is described as above. The format is cell-based. Particulars: Homo sapiens, NCI-H522, H-522 lung, PARP1/SNP T/T, MMS alone, 72 h, mean (±SD).
Source text: as §1, §2, §3

For assay [11], the system named is metastatic melanoma patients. Kind of assay: Response to TMZ treatment in metastatic melanoma patients by rs1805407 genotype. The format is in vivo, human. Particulars: all 21 patients that had the SNP rs1805407 (C/T or C/C). An excerpt:
The melanoma dataset consisted of whole genome gene expression, microRNA expression, DNA methylation, and data from the selected SNP panel. MGM-Learn was used to learn a network over the top 1000 features most correlated (pairwise) with “response” to treatment clinical variable, a binary variable indicating response/no response to temozolomide (TMZ) treatment dichotomized at presence of a response or stability of disease at 4 months of therapy. The 1,000 most correlated features in the input dataset included 557 mRNA expression probes, 425 methylation probes, 14 miRNA probes and 4 SNPs. […] The largest interconnected output network included 20 features connected to the response variable in our initial (undirected) learned network (FIG. 2A). It was emphasized that these features were connected to the response variable not only because they have high pairwise correlation with it (FIG. 2B), but also because they are dependent on response even when conditioned on all other variables included in the input. In this sense, they represent direct (causal) interactions and not simple biomarkers. From the 20 features initially connected to response, 15 were left connected after causal filtering (FIG. 2A, black lines). […]
Melanoma study design: Using a retrospective cohort study design, 69 patients with metastatic melanoma who were treated with alkylator-based chemotherapy were evaluated. […]

For `O=P1(N(CCCl)CCCl)NCCCO1` (centres unmarked) [Cyclophosphamide], in assay [1], the “resistance or sensitivity of cell lines with at least one allele of rs1805407 vs wild type” value (“resistance or sensitivity … vs wild type” for short) is “Increased resistance”.
Turning to `O=C(c1cc(Cc2n[nH]c(=O)c3ccccc23)ccc1F)N1CCN(C(=O)C2CC2)CC1` [olaparib], in assay [1], the “resistance or sensitivity … vs wild type” value was “slight increase in sensitivity”.
Take `O=NN(CCCl)C(=O)NCCCl` [Carmustine]: the “resistance or sensitivity … vs wild type” value in assay [1] is reported as “Increased resistance”.
The term IC50 denotes the concentration needed to halve the response being measured. Regarding `COS(C)(=O)=O` [MMS, methyl methanesulfonate], the IC50 in [2] was found to be 299 µM; in assay [3], 166 µM; in [4], 190 µM; in assay [5], 521 µM; in [6], 260 µM; in assay [7], 193 µM. Further, the figures for the IC50 in assay [8], in assay [9] and in [10] were 306 µM, 255 µM and 578 µM, respectively.
In the case of `CC1=C(CO)C2=C(C)C3(CC3)[C@@](C)(O)C(=O)C2=C1` [Irofulven, Hydroxymethylacylfulvene], the “resistance or sensitivity … vs wild type” value in assay [1] is listed as “Increased sensitivity”.
For `Cn1nnc2c(C(N)=O)ncn2c1=O` [TMZ, temozolomide], the “response to TMZ treatment” value in assay [11] was “no response”.

The values above are taken from US10260108B2, “PARP genomic variants conferring resistance and sensitization to chemotherapy under inhibition” (University of Pittsburgh—Of the Commonwealth System of …, priority 2014, dated 2019).
